Assay results: US4275065A, “Modulating the immune response with 2-substituted-3-hydroxythiazolo[2,3-b]b e” (American Home Products Corporation, priority 1980, dated 1981)

Assays:
[1] = test system: antibody-secreting plaque-forming splenocytes (IgG and IgM); experiment: Cunningham modification of the Jerne assay (hemolytic plaque technique), IgM and IgG plaques per spleen; assay type: in vivo, CDF1 (Balb/c × DBA/2) mice; details: 100 mg/kg
Procedure: In this example, the compounds of the invention are tested for their effect on antibody-secreting plaque-forming splenocytes (IgG and IgM) in the Cunningham modification of the Jerne assay. This technique is able to detect, in a quantitative manner, antibody producing cells in response to antigen stimulus in the host mouse. For study of […] immune response, sheep erythrocytes (SRBC) are used (as in the present Example), while for humoral immune response, SRBC coupled with pneumococcal polysaccharide is used.
CDF1 (Balb/c × DBA/2) mice are immunized with 0.1 ml. of 10^8 sheep erythrocytes (SRBC) intraperitonially 4-5 days before the assay. The mice are separated into groups, with one group serving as a control and all other groups receiving compounds of the invention. The treated mice are dosed with drug on day one. […] The spleens of the sacrificed mice are excised and washed several times in RPMI 1640 with 10% fetal bovine serum. 100 λ of spleen cells are mixed with a drop of guinea pig complement, four drops of RPMI 1640 and a drop of 25% SRBC in a microtiter plate well and then pipetted into a Cunningham chamber. On day four, for IgM determinations, the chambers are incubated for 30 minutes at 37° C. Antibody, released by the small proportion of active cells, attaches to the surrounding erythrocytes which are lysed by complement leaving a small plaque up to 0.5 mm. in diameter. Since only cells releasing IgM antibody form plaques directly, a "developing" serum must be added to be able to form and view IgG plaques. Thus fifth or sixth day cultured spleen cells are further treated with rabbit antimouse IgG and then incubated for 45 minutes. Both IgM and IgG plaques are counted under a stereomicroscope.
In Table 1 are given the IgM and IgG plaque counts per spleen for mice treated with 6-chloro-2-phenylthiazolo[2,3-b]benzothiazol-3(2H)-one mesoionic didehydro derivative and for the controls:
The assay is repeated using the following compounds of the invention: 2-phenylthiazolo[2,3-b]benzothiazol-3(2H)-one mesoionic didehydro derivative (A), 6-chloro-2-(p-chlorophenyl)-thiazolo[2,3-b]benzothiazol-3(2H)-one mesoionic didehydro derivative (B) and 6-chloro-2-phenylthiazolo[2,3-b]benzothiazol-3(2H)-one mesoionic didehydro derivative (C).

[2] = test system: thymus gland; experiment: effect on the thymus gland (thymus weight); assay type: in vivo, BDF1 mice
Procedure: The effect of the compounds of the invention on the thymus gland is measured. BDF1 mice of 18-20 gms. weight are dosed at 150 mg/kg. with 6-chloro-2-phenylthiazolo[2,3-b]benzothiazolo-3(2H)-one mesoionic didehydro derivative for eight consecutive days. The mice are sacrificed on the ninth day, the thymus glands excised and weighed. The excised thymus glands averaged […]. as compared to […]. for the control group. […] The weight loss is also correlated to dose, and the results are as follows:
Using the same technique, the following compounds of the invention were tested: 6-chloro-2-(p-chlorophenyl)thiazolo[2,3-b]benzothiazol-3(2H)-one mesoionic didehydro derivative (A), 2-phenyl-5,6,7,8-tetrahydrothiazolo[2,3-b]benzothiazol-3(2H)-one mesoionic didehydro derivative (B), 2-phenylthiazolo[2,3-b]-benzothiazol-3(2H)-one mesoionic didehydro derivative (C),6-chloro-2-trifluoroacetylthiazolo[2,3-b]benzothiazol-3(2H)-one mesoionic didehydro derivative (D), 6-chloro-3-hydroxy-2-phenylthiazolo[2,3-b]benzothiazolium bromide (E), 7-ethoxy-3-hydroxy-2-phenylthiazolo[2,3-b]benzothiazolium bromide (F), 3-hydroxy-2-phenylthiazolo[2,3-b]benzothiazolium bromide (G), and 3-hydroxy-2-phenyl-5,6,7,8-tetrahydrothiazolo[2,3-b]benzothiazolium bromide (H).

[3] = test system: adjuvant arthritis (left paw edema); experiment: adjuvant arthritis test, prophylactic peroral administration; assay type: in vivo, male Lewis strain rats; details: prophylactic p.o.
[4] = test system: established adjuvant arthritis (left paw edema); experiment: established adjuvant arthritis, therapeutic peroral administration; assay type: in vivo, male Lewis strain rats; details: therapeutic p.o., * = p < 0.05
[5] = test system: delayed hypersensitivity reaction; experiment: guinea pig delayed hypersensitivity assay (PPD); assay type: in vivo, Male Hartley strain guinea pigs; details: 50 mg/kg orally, read 24 hours after challenge, * = p < 0.05
[6] = test system: autoimmune disease (systemic lupus erythematosus); experiment: autoimmune disease (systemic lupus erythematosus), immunoglobulin determinations, female NZB/W mice; assay type: in vivo, female NZB/W F1 mice; details: A 100 mg/kg, levamisole 25 mg/kg, i.p. twice weekly
Procedure: (§1) The effect of the compounds of the invention on the development and progress of autoimmune disease (systemic lupus erythematosus) in the New Zealand F1 hydrid mouse (NZB×NZW) is evaluated. NZB/W F1 mice are divided into two groups according to sex. […] IgG, IgM and antinuclear antibody determinations are made on pooled samples of serum obtained by capillary bleedings of the suborbital sinus at approximately monthly intervals. The compounds of the invention are suspended in a solution of physiological saline with 0.16% CMC. All dosing is twice weekly intraperitonially. […] Immunoglobulin values from serum samples are compared with the baseline (pretreatment) for each group.

[7] = test system: autoimmune disease (systemic lupus erythematosus); experiment: autoimmune disease (systemic lupus erythematosus), immunoglobulin determinations, male NZB/W mice; assay type: in vivo, male NZB/W F1 mice; details: A 100 mg/kg, levamisole 25 mg/kg, i.p. twice weekly
Procedure: as §1

[8] = test system: murine Lewis lung carcinoma; experiment: metastatic spread of murine Lewis lung carcinoma implanted subcutaneously; assay type: in vivo
Procedure: The ability of the compounds of the invention to influence the growth and metastatic spread of murine Lewis lung carcinoma implanted subcutaneously,is evaluated.
The procedures employed for stock tumor maintenance and transfer, as well as for drug evaluation on the primary tumor, are those found in Cancer Chemotherapy Reports, Vol. 3, No. 2, September 1972, Protocol 1.400. The measurements of metastic spread are made by counting tumor foci on the excised lung under an illuminated magnifying lens or a dissecting microscope, after employment of the Wexler india ink technique (Hilda Wexler, "Accurate Identification of Experimental Pulmonary Metastases", J. Nat. Can. Inst., Volume 36, No. 4, April 1966, pp. 641-643) to accurately identify and count lung metasteses.

[9] = 150 mg/kg, eight days, in words

For `[O-]c1c(-c2ccccc2)sc2sc3ccc(Cl)cc3[n+]12` [Example 3, 6-Chloro-2-phenylthiazolo[2,3-b]benzothiazol-3(2H)-one mesoionic didehydro derivative], the “IgG plaques, mean (total number of plaques per spleen)” value ([1]; Day 4) was 37,087 plaques per spleen, the “IgM plaques, mean (total number of plaques per spleen)” value ([1]; Day 4) was 63,993 plaques per spleen and the “IgG plaques, mean (total number of plaques per spleen)” value ([1]; Day 6) was 152,745 plaques per spleen. The “IgM plaques, mean (total number of plaques per spleen)” value ([1]; Day 6) was 39,679 plaques per spleen, the Thymus weight ([2]; 12.5 mg/kg) was 55.3 mg and the Thymus weight ([2]; 50 mg/kg) was 46 mg. For the same molecule, the Thymus weight ([2]; 100 mg/kg) was 11.8 mg, the Thymus weight ([2]; 150 mg/kg, eight consecutive days, ninth day) was 21.8 mg and the “Histopathological examination of the treated thymus glands” value [2, 9] was “weight loss to be due solely to the depletion of lymphocytes”. The “size of the cervical, axillary, trachial and inguinal lymph nodes” value [2, 9] was “some reduction in the size”, the Thymus weight ([2]; 200 mg/kg) was 20.5 mg and the “recovery of thymus weight and histopathological status” value ([2]; after resting for three weeks, in words) was “return to normal weight and histopathological status”. The “Mean % Inhibition of Left Paw Edema” value ([3]; 10 mg/kg) was 32%, the “Mean % Inhibition of Left Paw Edema” value ([3]; 25 mg/kg, * = p < 0.05?) was 41% and the “Mean % Inhibition of Left Paw Edema” value ([3]; 50 mg/kg, * = p < 0.05?) was 63%. The “Mean % Inhibition of Left Paw Edema” value ([4]; 4th day of dosing, 12.5 mg/kg) was 94%, the “Mean % Inhibition of Left Paw Edema” value ([4]; 4th day of dosing, 50 mg/kg) was 67% and the “Mean % Inhibition of Left Paw Edema” value ([4]; 7th day of dosing, 12.5 mg/kg) was 66%. For the same molecule, the “Mean % Inhibition of Left Paw Edema” value ([4]; 7th day of dosing, 50 mg/kg) was 58%, the “Mean % Inhibition of Paw Edema” value ([5]; 6 hours after challenge) was 41% and the “Mean % Inhibition of Paw Edema” value ([5]; 24 hours before challenge) was 43%. For the same molecule, the “ANA (antinuclear antibody), Highest Dilution Positive” value (“ANA (antinuclear antibody)” below) ([6]; 47 Days) was “neg”, the IgG level ([6]; 47 Days) was 234 mg./100 ml and the IgM level ([6]; 47 Days) was 49 mg./100 ml. The “ANA (antinuclear antibody)” value ([6]; 76 Days) was “neg”, the IgG level ([6]; 76 Days) was 220 mg./100 ml and the IgM level ([6]; 76 Days) was 54 mg./100 ml. For the same molecule, the “ANA (antinuclear antibody)” value ([6]; 111 Days) was “neg”, the IgG level ([6]; 111 Days) was 496 mg./100 ml and the IgM level ([6]; 111 Days) was 148 mg./100 ml. The “ANA (antinuclear antibody)” value ([6]; 154 Days) was “neg”, the IgG level ([6]; 154 Days) was 420 mg./100 ml and the IgM level ([6]; 154 Days) was 108 mg./100 ml. The “IgG Total Change From Baseline” value [6] was -40 mg./100 ml, the “IgM Total Change From Baseline” value [6] was “+44 mg./100 ml” and the IgG level ([6]; Pretreatment) was 460 mg./100 ml. For the same molecule, the IgM level ([6]; Pretreatment) was 64 mg./100 ml, the “ANA (antinuclear antibody)” value ([7]; 47 Days) was “neg” and the IgG level ([7]; 47 Days) was 234 mg./100 ml. The IgM level ([7]; 47 Days) was 48 mg./100 ml, the “ANA (antinuclear antibody)” value ([7]; 76 Days) was “neg” and the IgG level ([7]; 76 Days) was 240 mg./100 ml. For the same molecule, the IgM level ([7]; 76 Days) was 49 mg./100 ml, the “ANA (antinuclear antibody)” value ([7]; 111 Days) was “neg” and the IgG level ([7]; 111 Days) was 240 mg./100 ml. For the same molecule, the IgM level ([7]; 111 Days) was 80 mg./100 ml, the “ANA (antinuclear antibody)” value ([7]; 154 Days) was “neg” and the IgG level ([7]; 154 Days) was 324 mg./100 ml. The IgM level ([7]; 154 Days) was 96 mg./100 ml, the “IgG Total Change From Baseline” value [7] was -126 mg./100 ml and the “IgM Total Change From Baseline” value [7] was “+52.5 mg./100 ml”. The IgG level ([7]; Pretreatment) was 450 mg./100 ml, the IgM level ([7]; Pretreatment) was 43.5 mg./100 ml and the “Average Number of Metastases” value ([8]; 25 mg/kg) was 10.8. The “Average Number of Metastases” value ([8]; 50 mg/kg) was 15.3, the “Average Number of Metastases” value ([8]; 100 mg/kg) was 38.4 and the “Average Number of Metastases” value ([8]; 150 mg/kg) was 81.3. For the same molecule, the “Average Number of Metastases” value ([8]; 300 mg/kg) was 99.1.
